Laboratory results reported in PubChem BioAssay (NCI).
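The concentration for 50% growth inhibition is given as GI50. TGI: concentration producing complete growth inhibition.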

Legend:
Assay in all cases: NCI anticancer screen, dose series, 384-well format
786-0 renal = tested on: 786-0 renal
A498 renal = tested on: A498 renal
A549 NSCLC = tested on: A549 NSCLC
ACHN renal = tested on: ACHN renal
BT-549 breast = tested on: BT-549 breast
CAKI-1 renal = tested on: CAKI-1 renal
CCRF-CEM leukemia = tested on: CCRF-CEM leukemia
COLO 205 colon = tested on: COLO 205 colon
DU-145 prostate = tested on: DU-145 prostate
HCC-2998 colon = tested on: HCC-2998 colon
HCT-116 colon = tested on: HCT-116 colon
HCT-15 colon = tested on: HCT-15 colon
HL-60(TB) leukemia = tested on: HL-60(TB) leukemia
HOP-62 NSCLC = tested on: HOP-62 NSCLC
HOP-92 NSCLC = tested on: HOP-92 NSCLC
HT29 colon = tested on: HT29 colon
IGROV1 ovarian = tested on: IGROV1 ovarian
K-562 leukemia = tested on: K-562 leukemia
KM12 colon = tested on: KM12 colon
LOX IMVI melanoma = tested on: LOX IMVI melanoma
M14 melanoma = tested on: M14 melanoma
MALME-3M melanoma = tested on: MALME-3M melanoma
MCF7 breast = tested on: MCF7 breast
MDA-MB-231 breast = tested on: MDA-MB-231 breast
MDA-MB-435 melanoma = tested on: MDA-MB-435 melanoma
MDA-MB-468 breast = tested on: MDA-MB-468 breast
MOLT-4 leukemia = tested on: MOLT-4 leukemia
NCI-H226 lung = tested on: NCI-H226 lung
NCI-H23 lung = tested on: NCI-H23 lung
NCI-H322M lung = tested on: NCI-H322M lung
NCI-H460 NSCLC = tested on: NCI-H460 NSCLC
NCI-H522 lung = tested on: NCI-H522 lung
NCI/ADR-RES ovarian = tested on: NCI/ADR-RES ovarian
OVCAR-3 ovarian = tested on: OVCAR-3 ovarian
OVCAR-4 ovarian = tested on: OVCAR-4 ovarian
OVCAR-5 ovarian = tested on: OVCAR-5 ovarian
OVCAR-8 ovarian = tested on: OVCAR-8 ovarian
PC-3 prostate = tested on: PC-3 prostate
RPMI-8226 leukemia = tested on: RPMI-8226 leukemia
RXF 393 renal = tested on: RXF 393 renal
SF-268 CNS = tested on: SF-268 CNS
SF-295 CNS = tested on: SF-295 CNS
SF-539 CNS = tested on: SF-539 CNS
SK-MEL-2 melanoma = tested on: SK-MEL-2 melanoma
SK-MEL-28 melanoma = tested on: SK-MEL-28 melanoma
SK-MEL-5 melanoma = tested on: SK-MEL-5 melanoma
SK-OV-3 ovarian = tested on: SK-OV-3 ovarian
SN12C renal = tested on: SN12C renal
SNB-19 CNS = tested on: SNB-19 CNS
SR leukemia = tested on: SR leukemia
SW-620 colon = tested on: SW-620 colon
T-47D breast = tested on: T-47D breast
TK-10 renal = tested on: TK-10 renal
U251 glioblastoma = tested on: U251 glioblastoma
UACC-257 melanoma = tested on: UACC-257 melanoma
UACC-62 melanoma = tested on: UACC-62 melanoma
UO-31 renal = tested on: UO-31 renal

## CN(CC(=O)N(Cc1ccc(C2CCCCC2)cc1)c1ccc(C(=O)O)c(O)c1)S(=O)(=O)c1c(F)c(F)c(F)c(F)c1F
786-0 renal
  GI50: 2.61 µM
  TGI: 7.22 µM
A498 renal
  GI50: 15.1 µM
  TGI: 28.4 µM
A549 NSCLC
  GI50: 16.8 µM
  TGI: 30.6 µM
ACHN renal
  GI50: 12.4 µM
  TGI: 24.9 µM
BT-549 breast
  GI50: 2.1 µM
  TGI: 3.7 µM
CAKI-1 renal
  GI50: 2.44 µM
  TGI: 5.2 µM
CCRF-CEM leukemia
  GI50: 1.81 µM
  TGI: 3.21 µM
COLO 205 colon
  GI50: 2.86 µM
  TGI: 6.54 µM
DU-145 prostate
  GI50: 18.6 µM
  TGI: 32.6 µM
HCC-2998 colon
  GI50: 1.71 µM
  TGI: 3.1 µM
HCT-116 colon
  GI50: 1.83 µM
  TGI: 3.29 µM
HCT-15 colon
  GI50: 1.93 µM
  TGI: 3.36 µM
HL-60(TB) leukemia
  GI50: 1.75 µM
  TGI: 3.14 µM
HOP-62 NSCLC
  GI50: 5.27 µM
  TGI: 16.2 µM
HOP-92 NSCLC
  GI50: 2.65 µM
  TGI: 5.88 µM
HT29 colon
  GI50: 2.29 µM
  TGI: 4.83 µM
IGROV1 ovarian
  GI50: 1.79 µM
  TGI: 3.34 µM
K-562 leukemia
  GI50: 2.1 µM
  TGI: 3.56 µM
KM12 colon
  GI50: 4.16 µM
  TGI: 13.4 µM
LOX IMVI melanoma
  GI50: 1.93 µM
  TGI: 3.36 µM
M14 melanoma
  GI50: 2 µM
  TGI: 3.55 µM
MALME-3M melanoma
  GI50: 2.52 µM
  TGI: 4.96 µM
MCF7 breast
  GI50: 1.88 µM
  TGI: 3.54 µM
MDA-MB-231 breast
  GI50: 1.98 µM
  TGI: 3.47 µM
MDA-MB-435 melanoma
  GI50: 2.29 µM
  TGI: 4.28 µM
MDA-MB-468 breast
  GI50: 2.18 µM
  TGI: 3.7 µM
MOLT-4 leukemia
  GI50: 1.89 µM
  TGI: 3.32 µM
NCI-H226 lung
  GI50: 2.6 µM
  TGI: 5.69 µM
NCI-H23 lung
  GI50: 6.96 µM
  TGI: 18.3 µM
NCI-H322M lung
  GI50: 4.14 µM
  TGI: 12.6 µM
NCI-H460 NSCLC
  GI50: 4.96 µM
  TGI: 16.9 µM
NCI-H522 lung
  GI50: 1.88 µM
  TGI: 3.29 µM
NCI/ADR-RES ovarian
  GI50: 15.3 µM
  TGI: 28.6 µM
OVCAR-3 ovarian
  GI50: 2.19 µM
  TGI: 4.24 µM
OVCAR-4 ovarian
  GI50: 10.7 µM
  TGI: 22.6 µM
OVCAR-5 ovarian
  GI50: 19.1 µM
  TGI: 33.2 µM
OVCAR-8 ovarian
  GI50: 1.92 µM
  TGI: 3.47 µM
PC-3 prostate
  GI50: 2.17 µM
  TGI: 3.96 µM
RPMI-8226 leukemia
  GI50: 1.79 µM
  TGI: 3.18 µM
RXF 393 renal
  GI50: 1.83 µM
  TGI: 3.41 µM
SF-268 CNS
  GI50: 1.94 µM
  TGI: 3.46 µM
SF-295 CNS
  GI50: 16.2 µM
  TGI: 29.8 µM
SF-539 CNS
  GI50: 2.01 µM
  TGI: 3.76 µM
SK-MEL-2 melanoma
  GI50: 2.02 µM
  TGI: 3.62 µM
SK-MEL-28 melanoma
  GI50: 2.58 µM
  TGI: 5.55 µM
SK-MEL-5 melanoma
  GI50: 4.6 µM
  TGI: 14.5 µM
SK-OV-3 ovarian
  GI50: 4.48 µM
  TGI: 15.5 µM
SN12C renal
  GI50: 2.09 µM
  TGI: 3.78 µM
SNB-19 CNS
  GI50: 1.99 µM
  TGI: 3.6 µM
SR leukemia
  GI50: 1.79 µM
  TGI: 3.2 µM
SW-620 colon
  GI50: 1.93 µM
  TGI: 3.37 µM
T-47D breast
  GI50: 6.09 µM
  TGI: 18.6 µM
TK-10 renal
  GI50: 14.5 µM
  TGI: 27.6 µM
U251 glioblastoma
  GI50: 1.85 µM
  TGI: 3.28 µM
UACC-257 melanoma
  GI50: 1.75 µM
  TGI: 3.18 µM
UACC-62 melanoma
  GI50: 1.92 µM
  TGI: 3.36 µM
UO-31 renal
  GI50: 12.5 µM
  TGI: 25 µM
